Measured values reported in patent US9604987B2, “Synthesis of autophagy inducing compound and the uses thereof” (Hong Kong Baptist University, priority 2012, dated 2017).

Key:
N2a cells = test: Western blot of autophagy marker LC3-II in N2a cells; assay type: cell-based, mouse; conditions: N2a, oxindole alkaloids, 12 hours
Method: Native and denatured PAGE and Western blotting analysis. Samples to be run under denaturing conditions were lysed with RIPA lysis buffer (150 mM NaCl, 50 mM Tris-HCl, 0.35% sodium deoxycholate, 1 mM EDTA, 1% NP40, 1 mM PMSF, 5 μg/ml aprotinin, 5 μg/ml leupeptin). Samples for native gels were lysed with detergent-free lysis buffer (50 mM Tris/HCl pH 7.4, 175 mM NaCl, 5 mM EDTA pH 8.0, 1 mM PMSF, 5 μg/ml aprotinin, 5 μg/ml leupeptin), and sheared 5 times through a 28-gauge needle followed by 2 times of sonication for 5 seconds according to previously described protocol. For denaturing, SDS-PAGE was performed using Tris-Glycine SDS running buffer and SDS sample buffer, and for native conditions, native-PAGE was run with detergent-free Tris-Glycine running buffer (BN2007, Invitrogen) and 4× native sample buffer (BN2003, Invitrogen) on a pre-casted native PAGE gel (BN1002BOX, Invitrogen). The proteins on the gels were then transferred to PVDF membrane (RPN303F, GE Healthcare) and processed for immunoblotting. Membranes were blocked with 5% non-fat milk and probed with the appropriate primary and secondary antibodies. The desired bands were visualized using the ECL kit (32106, Pierce). The band density was quantified using the ImageJ program and normalized to that of the control group.
In order to confirm the neuronal autophagy inducing activity of Cory B (its chemical structure is shown in FIG. 1A), mouse neuroblastoma N2a, rat phenochromocytoma PC12 and human neurobastoma SH-SY5Y are treated with different concentrations of Cory B for 24 hours and cell lysates are subjected to western blotting analysis of LC3-II expression which is an autophagy-specific marker.
To confirm that enhancement of autophagy markers by Cory B is due to induction of autophagy rather than blockage of autophagosome maturation, N2a cells are treated with 25 μM Cory B or 30 μM lysosome inhibitor CQ together with Cory B for 12 hours. Cell lysates are subject to western blot analysis. Data are presented as the mean±SEM from 3 independent experiments (***p<0.001, one-way ANOVA for multiple comparison and Tukey's test as post hoc test). Both LC3-II levels and the number of GFP-LC3 puncta in the Cory B and CQ co-treatment group are much higher than in the CQ-alone treatment group (FIG. 2A-D). Meanwhile, Cory B induces GFP-LC3 puncta formation is abolished by treatment of 5 mM autophagy inhibitor 3-MA for 24 hours (FIG. 2C, D). Cells were fixed in 4% paraformaldehyde and analyzed under a confocal microscope. Data are presented as the mean±SEM of one representative experiment from three independent experiments. (***p<0.001, one-way ANOVA for multiple comparison and Tukey's test as post hoc test). […] Thus, Cory B is indeed an autophagy inducer in neuronal cells.
To compare the activities of oxindole alkaloids on autophagy induction, LC3II expression levels in N2a cells after treatment with Corynoxine B (Cory B) (FIG. 8A), Corynoxine (Cory) (FIG. 8B), Rhynchophylline (Rhy) (FIG. 8C) and Isorhynchophylline (IsoRhy) for 12 hours are examined.
In order to examine the pro-autophagic activities of the synthesized Cory B analogues, neuroblastoma 2a, a neuronal cell line, are treated with various concentrations of the analogues for 12 hrs. The cells are then harvested and lysed with RIPA buffer (150 mM NaCl, 50 mM Tris-HCl pH 7.4, 0.35% sodium deoxycholate, 1 mM EDTA, 1% NP40, 1 mM PMSF, 5 μg/ml aprotinin, 5 μg/ml leupeptin). The sample are lysed on ice with occasional vortex for 30 min, and then centrifuged at 14,000 rpm for 15 min at 4° C. The supernatant are collected and denatured at 95° C. in sample buffer for 5 min. The denatured samples are then separated on 15% SDS-PAGE gels and transferred to PVDF membrane. Membranes are then blocked with 5% non-fat milk and probed with appropriate primary and secondary antibodies. The protein signals of LC3II, marker protein of autophagy, are finally visualized with ECL kit and the protein bands density are quantified by ImageJ program. […]

N2a Swedish APP cells = test: APP reduction in N2a Swedish APP cells (western blot); assay type: cell-based, mouse; conditions: different concentrations, with or without CQ and 3MA
Method: N2a Swedish APP cells are incubated with different concentration of Cory and Cory B in the presence or absence of CQ and 3MA. […] Tg2567 APP mice, 3 months old JNPL P301 Tau mice and WT mice intraperitoneally are administrated with 20 mg/kg/d CoryB.

Row | SMILES | autophagy induction (LC3II expression level) (N2a cells) | full length and CTF APP (N2a Swedish APP cells)
1 | CC[C@@H]1CN2CC[C@@]3(C(=O)Nc4ccccc43)C2C[C@@H]1C(=COC)C(=O)OC (stereo partly shown) [Cory, corynoxine] | significantly activate autophagy | dose-dependently reduce both full length and CTF APP
2 | CC[C@H]1CN2CC[C@@]3(C(=O)Nc4ccccc43)[C@@H]2C[C@@H]1/C(=C\OC)C(=O)OC [IsoRhy, Isorhynchophylline, reference compound] | did not show any activity on autophagy induction | –
3 | CC[C@H]1CN2CC[C@]3(C(=O)Nc4ccccc43)[C@@H]2C[C@@H]1/C(=C\OC)C(=O)OC [Rhy, Rhynchophylline, reference compound] | did not show any activity on autophagy induction | –
